Source: patent US10927343B2, “Therapeutic apoptotic cell preparations, method for producing same and uses thereof” (ENLIVEX THERAPEUTICS LTD, priority 2012, dated 2021)

System: NLRP3 inflammasome-induced IL-1β release from murine peritoneal macrophages (pMΦ)
Assay: IL-1β release from primary resident peritoneal macrophages (ELISA)
Assay type: cell-based, mice
Conditions: LPS + 3% DSS, z-YVAD-fmk 10 μM, K+ 130 mM, bafilomycin A1 10 nM, NAC 20 mM
Experimental: Primary resident peritoneal macrophages (pMΦ) of WT or Nlrp3−/− mice were generated as described elsewhere (Bauer et al. 2010). Briefly, mice were sacrificed under isoflurane anesthesia by cervical dislocation. Peritoneal lavage was then performed by exposing the parietal peritoneum and injecting intraperitoneally with a transpipette 10 ml of 2% FBS in PBS. The peritoneal lavage fluid was centrifuged and re-suspended at the desired concentration. The adherent pMΦ (F 4/80 positive cells) subset consists about 20% of the peritoneal lavage as observed by flow cytometer analysis. Cells were then plated into culture dishes overnight. Cells were washed, and adherent cells were used for cytokine assays. Where indicated, experiments were performed after four weeks of co-housing WT and NLRP3-deficient mice to neutralize the microbiota effect.
pMΦ were seeded into 96-well plates at a density of 2×10^5 cells per well. After LPS priming for 1 h, cells were stimulated with different activators for 24 h. Cell culture supernatant was used for ELISA (Biolegend, San Diego Calif., USA), which was performed according to the manufacturer's protocol.
In order to examine the effect of the apoptotic cell composition on inflammasome-induced IL-1β release, isolated macrophages were exposed to lipopolysaccharide (LPS) and DSS with or without earlier interaction with apoptotic cells for two hours.
Given the need for TLR triggering through NF-κB signaling, and the fact that apoptotic cells can inhibit NF-κB, and therefore inhibit […] secretion in the absence of inflammasome inhibition, a set of experiments was initiated to elucidate whether IL-1β secretion is inhibited both at NF-κB and NLRP3 levels by apoptotic cells. Resident peritoneal macrophages (pMΦ) were either incubated with apoptotic cells, washed, and primed with LPS following stimulation with various inflammasome inducers, or were first primed with LPS, allowing accumulation of de novo […] transcription and then treated with apoptotic cells and inducers.

Compound	DSS-mediated IL-1β release
[Cl-].[K+] [KCl]	inhibited
CC(=O)N[C@@H](CS)C(=O)O [N-acetyl-L-cysteine]	significantly inhibited
CO/C1=C\C(C)=C\[C@@H](C)[C@@H](O)[C@@H](C)C/C(C)=C/C=C/[C@H](OC)[C@@H]([C@@H](C)[C@@H](O)[C@H](C)[C@@]2(O)C[C@@H](O)[C@H](C)[C@@H](C(C)C)O2)OC1=O [bafilomycin, bafilomycin A1]	inhibited
z-YVAD-fmk	almost complete inhibition
